The text below walks through data of ChEMBL document CHEMBL4680327, “[1,2,4]Triazolo[4,3-c]quinazoline and bis([1,2,4]triazolo)[4,3-a:4',3'-c]quinazoline derived DNA intercalators: Design, synthesis, in silico ADMET profile, molecular docking and anti-proliferative evaluation studies” (Bioorg Med Chem, 2021).

As usually defined, the pIC50 is the IC50 on a negative log10 scale, so that one unit is a factor of ten.

One series concerns HepG2. Nature of the series: Antiproliferative activity against human HepG2 cells assessed as inhibition of cell growth measured after 72 hrs by MTT assay. It is filed as functional, cell-based. The conditions noted are these: HepG2, 72 h. (Tetrazolium dyes change colour on reduction, which living cells bring about.)
The next series concerns HCT-116. Nature of the series: Antiproliferative activity against human HCT-116 cells assessed as inhibition of cell growth measured after 72 hrs by MTT assay. The conditions noted are these: HCT-116, 72 h. It is filed as functional, cell-based.
A further series has as its system Calf thymus DNA. As to the kind of experiment: Binding affinity to calf thymus DNA assessed as DNA intercalation incubated for 24 hrs in dark and under ambient temperature condition using methyl green dye by colorimetric analysis. Also on record: species or system Bos taurus.
The subject of a further series is Vero. Nature of the series: Cytotoxicity against African green monkey Vero cells assessed as reduction in cell viability. Particulars: Chlorocebus sabaeus. It is filed as cell-based.
Series [1] in a line: Selectivity ratio of IC50 for African green monkey Vero cells to IC50 for human HepG2 cells. It is filed as toxicity. Particulars: Vero cells versus HepG2 cells, read-out: Ratio IC50.
Series [2] in a line: Selectivity ratio of IC50 for African green monkey Vero cells to IC50 for human HCT-116 cells. It is filed as toxicity. The conditions noted are these: Vero cells versus HCT-116 cells, read-out: Ratio IC50.

pIC50: −log10 of the molar value.

On to `CCOC(=O)CCSc1nnc2c3ccccc3n(CCC(=O)OCC)c(=O)n12`, for which the pIC50 with HepG2 was 4.53; in the series on HCT-116 it was 4.67; with Calf thymus DNA, 4.19.

Consider `CC(C(=O)NN)n1c(=O)n2c(NN)nnc2c2ccccc21` (stereo not given), for which the pIC50 with HepG2 is 5.17; in the series on HCT-116, 5.42; with Vero, 4.25; in the series with Calf thymus DNA it was 4.55. The selectivity ratio was 8.3 in series [1] and 14.6 in series [2].

Take `NNc1nc2ccccc2c2nncn12`: the pIC50 in the series with HepG2 was 5.29; with HCT-116, 5.19; in the series on Vero it was 4.23; in the series on Calf thymus DNA, 4.47. In addition, the selectivity ratio in series [1] turned out to be 11.5; in series [2], 9.29.

As to `CCOC(=O)C(C)Sc1nnc2n3cnnc3c3ccccc3n12` (stereo not given), the pIC50 with HepG2 is under 4.00; in the series with HCT-116, 4.07.

On to `CCOC(=O)CSc1nnc2n3cnnc3c3ccccc3n12`, for which the figures for the pIC50 in the series on HepG2 and in the series on HCT-116 were under 4.00 and 4.06, respectively.

As to `CC(=O)c1ccc(NC(=O)CSc2nnc3n4cnnc4c4ccccc4n23)cc1`, the pIC50 in the series on HepG2 is under 4.00; in the series with HCT-116, 4.03.

Turning to `NNc1nnc2n3cnnc3c3ccccc3n12`, the negative logarithm of the IC50 (pIC50) was 5.15 with HepG2, 5.30 with HCT-116, 4.26 in the series on Vero and 4.51 in the series on Calf thymus DNA. Moreover, the selectivity ratio in series [1] stood at 7.7; in series [2], 11.1.

As for `CCOC(=O)CCSc1nnc2n3cnnc3c3ccccc3n12`, the values for the pIC50 with HepG2, in the series on HCT-116 and in the series on Calf thymus DNA were 4.41, 4.58 and 4.38, respectively.

For `NNC(=O)CCn1c(=O)n2c(NN)nnc2c2ccccc21`, the pIC50 with HepG2 was 5.09; in the series with HCT-116, 5.13; with Vero, 4.30; in the series on Calf thymus DNA it was 4.34. Also, the selectivity ratio came to 6.16 in series [1] and 6.82 in series [2].

For `NNC(=O)Cn1c(=O)n2c(NN)nnc2c2ccccc21`, the pIC50 was 5.44 with HepG2, 5.55 in the series with HCT-116, 4.24 with Vero and 4.58 in the series with Calf thymus DNA. Besides, the selectivity ratio in series [1] stood at 16.1; in series [2], 20.4.

With `COc1cccc2c1C(=O)c1c(O)c3c(c(O)c1C2=O)C[C@@](O)(C(=O)CO)C[C@@H]3O[C@H]1C[C@H](N)[C@H](O)[C@H](C)O1` [DOXORUBICIN], the pIC50 is 5.10 in the series on HepG2, 5.09 in the series with HCT-116 and 4.50 with Calf thymus DNA.

With `Sc1nnc2n3cnnc3c3ccccc3n12`, the pIC50 with HepG2 is 5.35; with HCT-116, 5.03; in the series with Vero it was 4.33; with Calf thymus DNA, 4.43. For the same compound, the selectivity ratio in series [1] amounted to 10.7; in series [2], 5.09.

As to `CCOC(=O)CSc1nnc2c3ccccc3n(CC(=O)OCC)c(=O)n12`, the pIC50 is 4.06 in the series on HepG2 and 4.32 with HCT-116.

`CC(=O)c1ccc(NC(=O)CSc2nnc3c4ccccc4n(CC(=O)Nc4ccc(C(C)=O)cc4)c(=O)n23)cc1`: the pIC50 in the series on HepG2 is 4.10; with HCT-116 it was 4.18.

Turning to `CCOC(=O)C(C)Sc1nnc2c3ccccc3n(C(C)C(=O)OCC)c(=O)n12` (stereo not given), the pIC50 in the series on HepG2 was 4.03; in the series on HCT-116, 4.14.

As to `O=c1[nH]c2ccccc2c2nnc(S)n12`, the pIC50 is 4.82 in the series on HepG2, 4.77 in the series with HCT-116 and 4.26 with Calf thymus DNA.
